#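 96-well plates; 48 h exposure; 5 concentrations. Endpoints by linear interpolation between flanking doses. Not reached: highest tested concentration assigned. Here, GI50 denotes the concentration required for 50% inhibition of growth.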 Activity calls are given as the source filed them. Cut-off read from the data, not from the text of the source: active = GI50 up to about 1.1 µM and inactive = higher.
# Columns and labels:
# Test in all cases: DTP human tumour cell line panel, 48 h
# [1] = system: 786-0
# [2] = system: A498
# [3] = system: A549
# [4] = system: ACHN
# [5] = system: CCRF-CEM
# [6] = system: COLO 205
# [7] = system: DLD-1
# [8] = system: DMS-114
# [9] = system: DMS-273
# [10] = system: EKVX
# [11] = system: HCC 2998
# [12] = system: HCT-116
# [13] = system: HCT-15
# [14] = system: HL-60
# [15] = system: HOP-18
# [16] = system: HOP-62
# [17] = system: HT-29
# [18] = system: IGROV-1
# [19] = system: K562
# [20] = system: KM-20L2
# [21] = system: KM12
# [22] = system: LOX IMVI
# [23] = system: LXFL 529
# [24] = system: M14
# [25] = system: M19-MEL
# [26] = system: MOLT-4
# [27] = system: Malme-3M
# [28] = system: NCI-H226
# [29] = system: NCI-H23
# [30] = system: NCI-H460
# [31] = system: NCI-H522
# [32] = system: OVCAR-3
# [33] = system: OVCAR-5
# [34] = system: OVCAR-8
# [35] = system: RPMI-8226
# [36] = system: RXF 393
# [37] = system: SF-268
# [38] = system: SF-295
# [39] = system: SK-MEL-28
# [40] = system: SK-MEL-2
# [41] = system: SK-MEL-5
# [42] = system: SK-OV-3
# [43] = system: SN12C
# [44] = system: SNB-75
# [45] = system: SNB-78
# [46] = system: SR
# [47] = system: TK-10
# [48] = system: U-251
# [49] = system: UACC-257
# [50] = system: UACC-62
# [51] = system: UO-31
# [52] = system: XF498
# [53] = system: CAKI-1
# [54] = system: OVCAR-4
# [55] = system: SF-539
# [56] = system: SNB-19
# [57] = system: SW-620
smiles,measurement,setting,value
O=C(NNC(=O)c1cc(/C=C/c2cccc([N+](=O)[O-])c2)nc(S)n1)Nc1ccc(Cl)cc1,GI50,[1],47.8 µM (inactive)
same,GI50,[2],> 100 µM (inactive)
same,GI50,[3],70 µM (inactive)
same,GI50,[4],> 100 µM (inactive)
same,GI50,[5],20.6 µM (inactive)
same,GI50,[6],18.4 µM (inactive)
same,GI50,[7],20.2 µM (inactive)
same,GI50,[8],30.8 µM (inactive)
same,GI50,[9],> 100 µM (inactive)
same,GI50,[10],> 100 µM (inactive)
same,GI50,[11],> 100 µM (inactive)
same,GI50,[12],27.2 µM (inactive)
same,GI50,[13],35.6 µM
same,GI50,[14],0.883 µM (active)
same,GI50,[15],> 100 µM (inactive)
same,GI50,[16],> 100 µM (inactive)
same,GI50,[17],41.8 µM (inactive)
same,GI50,[18],> 100 µM (inactive)
same,GI50,[19],39.2 µM (inactive)
same,GI50,[20],45.9 µM (inactive)
same,GI50,[21],98.9 µM (inactive)
same,GI50,[22],20 µM (inactive)
same,GI50,[23],42.3 µM (inactive)
same,GI50,[24],93.8 µM (inactive)
same,GI50,[25],69 µM (inactive)
same,GI50,[26],23.6 µM (inactive)
same,GI50,[27],> 100 µM (inactive)
same,GI50,[28],> 100 µM (inactive)
same,GI50,[29],77.4 µM (inactive)
same,GI50,[30],46.6 µM (inactive)
same,GI50,[31],22.7 µM (inactive)
same,GI50,[32],62.8 µM (inactive)
same,GI50,[33],> 100 µM (inactive)
same,GI50,[34],68.4 µM (inactive)
same,GI50,[35],25.5 µM (inactive)
same,GI50,[36],34.5 µM (inactive)
same,GI50,[37],> 100 µM (inactive)
same,GI50,[38],> 100 µM (inactive)
same,GI50,[39],> 100 µM (inactive)
same,GI50,[40],> 100 µM (inactive)
same,GI50,[41],86.5 µM (inactive)
same,GI50,[42],> 100 µM (inactive)
same,GI50,[43],> 100 µM (inactive)
same,GI50,[44],> 100 µM (inactive)
same,GI50,[45],> 100 µM (inactive)
same,GI50,[46],1.25 µM (inactive)
same,GI50,[47],> 100 µM (inactive)
same,GI50,[48],14.8 µM (inactive)
same,GI50,[49],91 µM (inactive)
same,GI50,[50],50.6 µM (inactive)
same,GI50,[51],91.2 µM (inactive)
same,GI50,[52],28.6 µM (inactive)
NC(=O)NNC/C(Cl)=C(\Cl)C(=O)O,GI50,[1],> 100 µM (inactive)
same,GI50,[2],> 100 µM (inactive)
same,GI50,[3],> 100 µM (inactive)
same,GI50,[4],> 100 µM (inactive)
same,GI50,[53],> 100 µM (inactive)
same,GI50,[5],> 100 µM (inactive)
same,GI50,[6],> 100 µM (inactive)
same,GI50,[7],> 100 µM (inactive)
same,GI50,[8],> 100 µM (inactive)
same,GI50,[9],> 100 µM (inactive)
same,GI50,[10],> 100 µM (inactive)
same,GI50,[11],> 100 µM (inactive)
same,GI50,[12],> 100 µM (inactive)
same,GI50,[13],> 100 µM
same,GI50,[14],> 100 µM (inactive)
same,GI50,[15],> 100 µM (inactive)
same,GI50,[16],> 100 µM (inactive)
same,GI50,[17],> 100 µM (inactive)
same,GI50,[18],> 100 µM (inactive)
same,GI50,[19],> 100 µM (inactive)
same,GI50,[20],> 100 µM (inactive)
same,GI50,[21],> 100 µM (inactive)
same,GI50,[22],> 100 µM (inactive)
same,GI50,[23],> 100 µM (inactive)
same,GI50,[24],> 100 µM (inactive)
same,GI50,[25],> 100 µM (inactive)
same,GI50,[26],> 100 µM (inactive)
same,GI50,[27],> 100 µM (inactive)
same,GI50,[28],> 50 µM (inactive)
same,GI50,[29],> 100 µM (inactive)
same,GI50,[30],> 100 µM (inactive)
same,GI50,[31],> 100 µM (inactive)
same,GI50,[32],> 100 µM (inactive)
same,GI50,[54],> 100 µM (inactive)
same,GI50,[33],> 100 µM (inactive)
same,GI50,[34],> 100 µM (inactive)
same,GI50,[35],> 100 µM (inactive)
same,GI50,[37],> 100 µM (inactive)
same,GI50,[38],> 100 µM (inactive)
same,GI50,[55],> 100 µM (inactive)
same,GI50,[39],> 100 µM (inactive)
same,GI50,[40],> 100 µM (inactive)
same,GI50,[41],> 100 µM (inactive)
same,GI50,[42],> 100 µM (inactive)
same,GI50,[43],> 100 µM (inactive)
same,GI50,[56],> 100 µM (inactive)
same,GI50,[44],< 0.01 µM (active)
same,GI50,[45],> 100 µM (inactive)
same,GI50,[57],> 100 µM (inactive)
same,GI50,[47],> 100 µM (inactive)
same,GI50,[48],> 100 µM (inactive)
same,GI50,[49],> 82.6 µM (inactive)
same,GI50,[50],> 100 µM (inactive)
same,GI50,[51],> 100 µM (inactive)
same,GI50,[52],> 100 µM (inactive)
COc1ccc2c(c1)[n+]([O-])c(-c1ccccc1)c(N)[n+]2[O-],GI50,[1],63.2 µM (inactive)
same,GI50,[2],69.3 µM (inactive)
same,GI50,[3],37.1 µM (inactive)
same,GI50,[4],52.6 µM (inactive)
same,GI50,[53],37.2 µM (inactive)
same,GI50,[5],53 µM (inactive)
same,GI50,[6],20.4 µM (inactive)
same,GI50,[7],45.6 µM (inactive)
same,GI50,[8],25.4 µM (inactive)
same,GI50,[9],34.4 µM (inactive)
same,GI50,[10],43.8 µM (inactive)
same,GI50,[11],54 µM (inactive)
same,GI50,[13],35.3 µM
same,GI50,[14],41.6 µM (inactive)
same,GI50,[15],33.6 µM (inactive)
same,GI50,[16],39 µM (inactive)
same,GI50,[17],52.7 µM (inactive)
same,GI50,[18],43.4 µM (inactive)
same,GI50,[19],45.2 µM (inactive)
same,GI50,[20],46 µM (inactive)
same,GI50,[21],63.4 µM (inactive)
same,GI50,[22],44.1 µM (inactive)
same,GI50,[23],30.5 µM (inactive)
same,GI50,[24],29.4 µM (inactive)
same,GI50,[25],39.2 µM (inactive)
same,GI50,[26],71.3 µM (inactive)
same,GI50,[27],20.9 µM (inactive)
same,GI50,[28],> 100 µM (inactive)
same,GI50,[29],23.9 µM (inactive)
same,GI50,[30],35.6 µM (inactive)
same,GI50,[31],17.1 µM (inactive)
same,GI50,[32],39.8 µM (inactive)
same,GI50,[54],47.3 µM (inactive)
same,GI50,[33],94 µM (inactive)
same,GI50,[34],37.2 µM (inactive)
same,GI50,[35],77.1 µM (inactive)
same,GI50,[37],30.5 µM (inactive)
same,GI50,[38],67.1 µM (inactive)
same,GI50,[55],32.4 µM (inactive)
same,GI50,[39],25 µM (inactive)
same,GI50,[40],46 µM (inactive)
same,GI50,[41],18 µM (inactive)
same,GI50,[42],> 100 µM (inactive)
same,GI50,[43],51.8 µM (inactive)
same,GI50,[56],42.5 µM (inactive)
same,GI50,[44],> 100 µM (inactive)
same,GI50,[45],44.8 µM (inactive)
same,GI50,[57],39.3 µM (inactive)
same,GI50,[47],> 100 µM (inactive)
same,GI50,[48],31.3 µM (inactive)
same,GI50,[49],21.2 µM (inactive)
same,GI50,[50],30.3 µM (inactive)
same,GI50,[51],63.1 µM (inactive)
same,GI50,[52],35 µM (inactive)
